The values below come from patent US20060009435A1, “Synthesis and powder preparation of fluticasone propionate” (priority 2004, published 2006).

Assay type in all cases: physicochemical
A short description of data set [1]: Particle size distribution by dynamic light scattering (Malvern Mastersizer 2000). The note with it: for particle size D(0.10) / particle size D(0.20) / particle size D(0.50) / particle size D(0.80) / particle size D(0.90) / particle size D(0.95) / particle size D(0.98) / particle size D(0.99) / particle size D(1.00): dynamic light scattering; for Particle size distribution D(v, 0.1), 0.1 quantile / Particle size distribution D(v, 0.5), 0.5 quantile / Particle size distribution D(v, 0.9), 0.9 quantile / Particle size distribution D(v, 0.95), 0.95 quantile: light scattering. The procedure: Particle size was measured on a dynamic light scattering device by Malvern model Mastersizer 2000, using a measuring range of 0.02-2000 μm, accuracy level of 1% at the median, helium neon laser as a red light source, and solid state light source as a blue light source. Particle size distributions are presented as the average particle size of specified percentiles, including the flanking 0.1 and 0.9 quantiles and the median 0.5 quantile of the overall particle size distribution versus volume curve.

A short description of data set [2]: Observation of powder flow, agglomeration tendency and electrostatic charge.
A short description of data set [3]: SEM micrograph of particle shape.
Data set [4] can be described thus: X-ray powder diffraction of the powder (crystalline or amorphous morphology). The procedure: X-ray diffraction data were acquired using a PHILIPS X-ray diffractometer model PW1050-70 set at 40 kV, 28 mA, using 1.54178 Å (Kα), diversion slit of 1°, receiving slit of 0.2 mm, scattering slit of 1° and a graphite monochromator.

“And” between values parts separate entries of the source, which are not always exact repeats. Identical values can stand only once. “Also recorded” adds a separate entry of the source. Like-named read-outs stand apart in the source and are kept apart here.

`CCC(=O)O[C@]1(C(=O)SCF)[C@H](C)C[C@H]2[C@@H]3C[C@H](F)C4=CC(=O)C=C[C@]4(C)[C@@]3(F)[C@@H](O)C[C@@]21C` [Example 12, fluticasone propionate]: the “particle size distribution in words” value in data set [1] (air-jet milled, data not shown) was “either too many oversized particles or too many undersized particles; also recorded: unsatisfactory size distribution”. Moreover, in data set [2], the “Electrostatic charge of the powder” value is on record as “tended to accumulate a considerable amount of static charge; also recorded: tended to accumulate a considerable amount of electrostatic charge” and the Tendency to agglomerate entry is “generally tended to agglomerate; also recorded: high tendency to agglomerate”. The “Particle shape (SEM micrograph)” value in data set [3] was “irregular shape of the particles; also recorded: irregular jaggedly shaped particles”. Moreover, in data set [3] (listed as Reference Example 12), the “Particle shape (SEM micrograph)” value is “irregular jaggedly shape”.
Regarding `CCC(=O)O[C@]1(C(=O)SCF)[C@H](C)C[C@H]2[C@@H]3C[C@H](F)C4=CC(=O)C=C[C@]4(C)[C@@]3(F)[C@@H](O)C[C@@]21C` [Example 13, fluticasone propionate], the “Morphology by X-ray powder diffraction pattern” value in data set [4] is reported as “crystalline morphology”. In data set [1], the Particle size median entry is “Particle size median: 2.21 microns”, the “particle size D(0.10)” value came out at 0.95 micron, the “particle size D(0.20)” value was determined as 1.31 micron and the “particle size D(0.50)” value is on record as 2.21 microns. Moreover, in data set [1], the “particle size D(0.80)” value was 3.43 microns, the “particle size D(0.90)” value is listed as 4.23 microns, the “particle size D(0.95)” value amounted to 4.96 microns and the “particle size D(0.98)” value was 5.82 microns. Besides, in data set [1], the “particle size D(0.99)” value came out at 6.37 microns; the “particle size D(1.00)” value is 8.11 microns; the “Particle size distribution D(v, 0.1), 0.1 quantile” value came out at 0.95 μ; the “Particle size distribution D(v, 0.5), 0.5 quantile” value is recorded as 2.21 μ. For the same compound, in data set [1], the “Particle size distribution D(v, 0.9), 0.9 quantile” value worked out at 4.23 μ and the “Particle size distribution D(v, 0.95), 0.95 quantile” value is 4.96 μ. Also, in data set [2], the “Electrostatic charge of the powder” value is listed as “did not exhibit any static electricity”; the “Powder characteristics (flow and morphology of the powder)” value is recorded as “Free flowing crystalline powder”; the Tendency to agglomerate entry is reported as “did not exhibit a tendency to agglomerate; also recorded: did not exhibit any tendency to agglomerate; also recorded: that does not tend to agglomerate”. In addition, in data set [3], the “Particle shape (SEM micrograph)” value was “regular spherical shape and have smooth surface; also recorded: uniform spherical shape”.
As to `CCC(=O)O[C@]1(C(=O)SCF)[C@H](C)C[C@H]2[C@@H]3C[C@H](F)C4=CC(=O)C=C[C@]4(C)[C@@]3(F)[C@@H](O)C[C@@]21C` [Example 14, fluticasone propionate], in data set [1], the Particle size median entry is recorded as “Particle size median: 2.14 microns;”, the “particle size D(0.10)” value is listed as 0.96 micron, the “particle size D(0.20)” value was 1.27 micron and the “particle size D(0.50)” value is 2.14 microns. Besides, in data set [1], the “particle size D(0.80)” value is reported as 3.44 microns, the “particle size D(0.90)” value amounted to 4.36 microns, the “particle size D(0.95)” value is reported as 5.27 microns and the “particle size D(0.98)” value was 6.44 microns. Besides, in data set [1], the “particle size D(0.99)” value is reported as 7.32 microns; the “particle size D(1.00)” value amounted to 13.54 microns; the “Particle size distribution D(v, 0.1), 0.1 quantile” value was found to be 0.96 μ; the “Particle size distribution D(v, 0.5), 0.5 quantile” value stood at 2.14 μ. Besides, in data set [1], the “Particle size distribution D(v, 0.9), 0.9 quantile” value is recorded as 4.36 μ and the “Particle size distribution D(v, 0.95), 0.95 quantile” value came to 5.27 μ. For the same compound, in data set [2], the “Powder characteristics (flow and morphology of the powder)” value is on record as “Free flowing crystalline powder”; the Tendency to agglomerate result is “did not exhibit a tendency to agglomerate; also recorded: that does not tend to agglomerate”.
Take `CCC(=O)O[C@]1(C(=O)SCF)[C@H](C)C[C@H]2[C@@H]3C[C@H](F)C4=CC(=O)C=C[C@]4(C)[C@@]3(F)[C@@H](O)C[C@@]21C` [Example 15, fluticasone propionate]: in data set [1], the Particle size median entry is given as “Particle size median 2.67 microns;”, the “particle size D(0.10)” value came out at 1.06 micron, the “particle size D(0.20)” value came to 1.52 micron and the “particle size D(0.50)” value turned out to be 2.67 microns. Further, in data set [1], the “particle size D(0.80)” value was found to be 4.51 microns, the “particle size D(0.90)” value came out at 5.95 microns, the “particle size D(0.95)” value is recorded as 7.51 microns and the “particle size D(0.98)” value is 9.81 microns. Besides, in data set [1], the “particle size D(0.99)” value is 11.67 microns; the “Particle size distribution D(v, 0.1), 0.1 quantile” value is listed as 1.06 μ; the “Particle size distribution D(v, 0.5), 0.5 quantile” value is reported as 2.67 μ. Besides, in data set [2], the “Powder characteristics (flow and morphology of the powder)” value is “Free flowing crystalline powder”; the Tendency to agglomerate entry was “did not exhibit a tendency to agglomerate; also recorded: that does not tend to agglomerate”.
As to `CCC(=O)O[C@]1(C(=O)SCF)[C@H](C)C[C@H]2[C@@H]3C[C@H](F)C4=CC(=O)C=C[C@]4(C)[C@@]3(F)[C@@H](O)C[C@@]21C` [Example 16, fluticasone propionate], the “Morphology by X-ray powder diffraction pattern” value in data set [4] was “low level of a crystalline morphology; also recorded: mostly amorphous morphology”. For the same compound, in data set [1], the Particle size median result is recorded as “Particle size median 4.10 microns;”, the “particle size of the powder” value is recorded as “less than 10 microns”, the “particle size D(0.10)” value came out at 1.90 micron and the “particle size D(0.20)” value is recorded as 2.46 micron. In data set [1], the “particle size D(0.50)” value was determined as 4.11 microns, the “particle size D(0.80)” value is recorded as 6.70 microns, the “particle size D(0.90)” value was found to be 8.40 microns and the “particle size D(0.95)” value worked out at 9.86 microns. In data set [1], the “particle size D(0.98)” value is recorded as 11.35 microns; the “particle size D(0.99)” value was 12.10 microns; the “particle size D(1.00)” value was found to be 14.24 microns; the “Particle size distribution D(v, 0.1), 0.1 quantile” value came out at 1.90 μ. Moreover, in data set [1], the “Particle size distribution D(v, 0.5), 0.5 quantile” value is 4.11 μ and 4.10 μ; the “Particle size distribution D(v, 0.9), 0.9 quantile” value was 8.40 μ and 8.39 μ; the “Particle size distribution D(v, 0.95), 0.95 quantile” value is recorded as 9.86 μ. In addition, the “Powder characteristics (flow and morphology of the powder)” value in data set [2] is given as “Partially amorphous powder”.
